The subject of experiment [1] is OCI-AML3 (NPMc+ mutant type). The experiment is described as follows: In vitro growth inhibition (GI50), OCI-AML3. The class given is cell-based. The note with it: Homo sapiens, OCI-AML-3; Cell lines of leukemia; read-out: GI 50 OCI- AML3 NPMc+.
The subject of a further experiment is U937 (FLT3 wild-type). Put plainly: In vitro growth inhibition (GI50), U937. In kind it is cell-based. The note with it: Homo sapiens, U-937; Cell lines of leukemia; read-out: GI 50 U937 FLT 3(WT).
In a further experiment the test system is RS4; 11 (FLT3 wild type). The experiment is described as follows: In vitro growth inhibition (GI50), RS4; 11. The note with it: Homo sapiens, RS4-11; Cell lines of leukemia; read-out: GI 50 RS4: 11 FLT3 (WT). In kind it is cell-based, human.
Experiment [2] has as its system KG-1 (expressing FGFR1OP2-FGFR1 fusion protein). Put plainly: In vitro growth inhibition (GI50), KG-1. In kind it is cell-based. The note with it: Homo sapiens; Cell lines of leukemia; read-out: GI 50 KG-1 FGFR1OP 2-FGFR1.
The test system of another experiment is HL-60 (FLT3 wild type). The experiment is described as follows: In vitro growth inhibition (GI50), HL-60. The class given is cell-based. The note with it: Homo sapiens, Cell lines of leukemia, read-out: GI 50 HL60 FLT3 (WT). The method in brief: (§1)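 After 3–5 days of treatment (top concentration 5,000 nM, serially diluted 2- or 10-fold to 0.01 nM, solvent ≤1%), viability was read by CCK8 at OD450. Growth rate was normalised to the time-zero and solvent-control wells, and GI50 was derived from the curve. Cultures in RPMI1640 + 10% FBS.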

Experiment [3] deals with K562 (FLT3 negative expression, positive expression of BCR-ABL fusion protein). The experiment is described as follows: In vitro growth inhibition (GI50), K562. The class given is cell-based. The note with it: Homo sapiens, Cell lines of leukemia, read-out: GI 50 K562 BCR-ABL.
The subject of experiment [4] is RAMOS (positive expression of Brutons tyrosine protein kinase). The experiment is described as follows: In vitro growth inhibition (GI50), RAMOS. The note with it: Homo sapiens, Cell lines of leukemia, read-out: GI 50 Ramos BTK. The class given is cell-based.
The test system of experiment [5] is Kasumi-1 (c-Kit N822K mutant type). Put plainly: In vitro growth inhibition (GI50), Kasumi-1. The note with it: Homo sapiens, Cell lines of leukemia, read-out: GI 50 Kasumi-1 Kit (N822K). The class given is cell-based. The method in brief: as §1
The subject of experiment [6] is MV4-11 (FLT3 ITD+/+ mutant type). The experiment is described as follows: In vitro growth inhibition (GI50), MV4-11. In kind it is cell-based, human. The note with it: Homo sapiens, MV4-11; Cell lines of leukemia; read-out: GI 50 MV4-11 FLT3 (ITD +/+).
Experiment [7] has as its system MOLM-13 (FLT3 ITD+/− mutant type). Put plainly: In vitro growth inhibition (GI50), MOLM-13. The class given is cell-based, human. The note with it: Homo sapiens, MOLM-13; Cell lines of leukemia; read-out: GI 50 MOLM-13 FLT3 (ITD+/−).

The values below come from patent US10647680B2, “Urea compound, preparation method therefor and medical use thereof” (Ancureall Pharmaceutical (Shanghai) Co., Ltd., priority 2016, dated 2020).

On to `CCOC(=O)c1ccc(-n2nc(C(C)(C)C)cc2NC(=O)Nc2ccc(-n3cnc4ccccc43)cc2)cc1` [Compound 111, ethyl 4-{5-[3-(4-benzimidazol-1-yl-phenyl)-carbamido]-3-tert-butyl-pyrazol-1-yl}-benzoate], for which the GI50 is above 1000 nM in experiment [1]; above 1000 nM in the experiment on U937 (FLT3 wild-type); 100 to 1000 nM in the experiment on RS4; 11 (FLT3 wild type); above 1000 nM in [2]; above 1000 nM with HL-60 (FLT3 wild type); 100 to 1000 nM in experiment [3]. In addition, the GI50 in experiment [4] is above 1000 nM; in [5], above 1000 nM; in experiment [6], 1 to 10 nM; in [7], 1 to 10 nM.

In the case of `Nc1cc(C2CC2)nn1C(=O)Nc1ccc(-n2cnc3ccccc32)cc1` [Compound 114, 5-amino-3-cyclopropylpyrazol-1-formic acid (4-benzimidazol-1-yl-phenyl)-amide], the GI50 (in [1]; in the experiment on U937 (FLT3 wild-type); with RS4; 11 (FLT3 wild type); in experiment [2]; in the experiment with HL-60 (FLT3 wild type); in [3]) was above 1000 nM each time. Moreover, the GI50 was above 1000 nM in experiment [4], above 1000 nM in experiment [5], 100 to 1000 nM in [6] and 100 to 1000 nM in experiment [7].

Consider `Nc1cc(C(F)(F)F)nn1C(=O)Nc1ccc(-n2cnc3ccccc32)cc1` [Compound 115, 5-amino-3-trifluoromethylpyrazol-1-carboxylic acid (4-benzimidazol-1-yl-phenyl)-amide], for which the GI50 in [1] was 100 to 1000 nM; in the experiment on U937 (FLT3 wild-type) it was above 1000 nM; in the experiment with RS4; 11 (FLT3 wild type) it was above 1000 nM; in experiment [2], above 1000 nM; with HL-60 (FLT3 wild type), above 1000 nM; in [3] it was above 1000 nM. Moreover, the GI50 was above 1000 nM in [4], above 1000 nM in experiment [5], 100 to 1000 nM in experiment [6] and 100 to 1000 nM in experiment [7].

As to `CN1CCN(CCCOc2ccc3c(c2)ncn3-c2ccc(NC(=O)n3nc(C(C)(C)C)cc3N)cc2)CC1` [Compound 118, 5-amino-3-tert-butyl-pyrazol-1-carboxylic acid (4-{5-[3-(4-methyl-piperazin-1-yl)-propoxyl]-benzimidazol-1-yl}-phenyl)-amide], the GI50 (in experiment [1]; in the experiment with U937 (FLT3 wild-type); in the experiment on RS4; 11 (FLT3 wild type); in [2]; in the experiment with HL-60 (FLT3 wild type); in experiment [3]) was above 1000 nM in each case. Besides, the GI50 in [4] was above 1000 nM; in [5], above 1000 nM; in experiment [6], 1 to 10 nM; in experiment [7], 1 to 10 nM.

For the compound `CC(C)(C)c1cc(N)n(C(=O)Nc2ccc(-n3cnc4cc(OCCN5CCOCC5)ccc43)cc2)n1` [Compound 119, 5-amino-3-tert-butyl-pyrazol-1-carboxylic acid {4-[5-(2-morpholin-4-yl-ethoxyl)-benzimidazol-1-yl]-phenyl}-amide], the GI50 (in experiment [1]; in the experiment on U937 (FLT3 wild-type); with RS4; 11 (FLT3 wild type); in [2]; in the experiment on HL-60 (FLT3 wild type); in [3]) was above 1000 nM each time. Besides, the GI50 in experiment [4] is above 1000 nM; in experiment [5], above 1000 nM; in experiment [6], 1 to 10 nM; in [7] it was 1 to 10 nM.

With `COCCOc1ccc2c(c1)ncn2-c1ccc(NC(=O)n2nc(C(C)(C)C)cc2N)cc1` [Compound 120, 5-amino-3-tert-butyl-pyrazol-1-carboxylic acid {4-[5-(2-methoxyl-ethoxyl)-benzimidazol-1-yl]-phenyl}-amide], the GI50 in [1] is 100 to 1000 nM; in the experiment with U937 (FLT3 wild-type) it was above 1000 nM; in the experiment with RS4; 11 (FLT3 wild type) it was above 1000 nM; in experiment [2], 100 to 1000 nM; in the experiment with HL-60 (FLT3 wild type), above 1000 nM; in [3], above 1000 nM. The GI50 in [4] is above 1000 nM; in experiment [5], above 1000 nM; in experiment [6] it was 1 to 10 nM; in experiment [7], 1 to 10 nM.

Regarding `CC(C)(C)c1cc(N)n(C(=O)Nc2ccc(-n3cnc4cc(OCC5CCCO5)ccc43)cc2)n1` (stereo not shown) [Compound 123, 5-amino-3-tert-butyl-pyrazol-1-carboxylic acid {4-[5-(tetrahydro-furan-2-ylmethoxy)-benzimidazol-1-yl]-phenyl}-amide], the GI50 (in experiment [1]; with U937 (FLT3 wild-type); in the experiment on RS4; 11 (FLT3 wild type); in experiment [2]; with HL-60 (FLT3 wild type); in experiment [3]) was above 1000 nM each time. Further, the GI50 was above 1000 nM in experiment [4], above 1000 nM in [5], 1 to 10 nM in [6] and 1 to 10 nM in experiment [7].

Consider `CCOC(=O)COc1ccc2c(c1)ncn2-c1ccc(NC(=O)n2nc(C(C)(C)C)cc2N)cc1` [Compound 124, ethyl (1-{4-[(5-amino-3-tert-butyl-pyrazol-1-carbonyl)-amino]-phenyl}-1H-benzimidazol-5-yloxy)-acetate], for which the GI50 in experiment [1] was 100 to 1000 nM; in the experiment with U937 (FLT3 wild-type) it was above 1000 nM; in the experiment with RS4; 11 (FLT3 wild type) it was above 1000 nM; in experiment [2], above 1000 nM; in the experiment on HL-60 (FLT3 wild type), above 1000 nM; in experiment [3], above 1000 nM. The GI50 in experiment [4], in [5], in experiment [6] and in experiment [7] was above 1000 nM throughout.

On to `CC(C)(C)c1cc(N)n(C(=O)Nc2ccc(-n3cnc4cc(F)ccc43)cc2)n1` [Compound 125, 5-amino-3-tert-butyl-pyrazol-1-carboxylic acid [4-(5-fluoro-benzimidazol-1-yl)-phenyl]-amide], for which the GI50 (in experiment [1]; with U937 (FLT3 wild-type); in the experiment on RS4; 11 (FLT3 wild type); in experiment [2]; with HL-60 (FLT3 wild type); in experiment [3]) was above 1000 nM each time. Moreover, the GI50 in experiment [4] is above 1000 nM; in experiment [5], above 1000 nM; in [6] it was 10 to 100 nM; in [7], 10 to 100 nM.

For the compound `CC(C)(C)c1cc(N)n(C(=O)Nc2ccc(-n3cnc4cc(C(F)(F)F)ccc43)cc2)n1` [Compound 126, 5-amino-3-tert-butyl-pyrazol-1-carboxylic acid [4-(5-trifluoromethyl-benzimidazol-1-yl)-phenyl]-amide], the GI50 (in experiment [1]; in the experiment with U937 (FLT3 wild-type); in the experiment with RS4; 11 (FLT3 wild type); in experiment [2]; in the experiment with HL-60 (FLT3 wild type); in experiment [3]) was above 1000 nM each time. Further, the GI50 is above 1000 nM in [4], above 1000 nM in experiment [5], 10 to 100 nM in experiment [6] and 10 to 100 nM in experiment [7].

Turning to `CNC(=O)c1cc(Oc2ccc3c(c2)ncn3-c2ccc(NC(=O)n3nc(C(C)(C)C)cc3N)cc2)ccn1` [Compound 127, 4-(1-{4-[(5-amino-3-tert-butyl-pyrazol-1-carbonyl)-amino]-phenyl}-1H-benzimidazol-5-yloxy)-pyridin-2-carboxylic acid methylamide], the GI50 (in [1]; in the experiment with U937 (FLT3 wild-type); with RS4; 11 (FLT3 wild type); in experiment [2]; in the experiment on HL-60 (FLT3 wild type); in experiment [3]) was above 1000 nM throughout. For the same compound, the GI50 in experiment [4] is above 1000 nM; in experiment [5], above 1000 nM; in experiment [6], 100 to 1000 nM; in experiment [7] it was 100 to 1000 nM.

In the case of `COCCOc1ccc2ncn(-c3ccc(NC(=O)n4nc(C(C)(C)C)cc4N)cc3)c2c1` [Compound 128, 5-amino-3-tert-butyl-pyrazol-1-carboxylic acid {4-[6-(2-methoxyl-ethoxyl)-benzimidazol-1-yl]-phenyl}-amide], the GI50 (in experiment [1]; in the experiment on U937 (FLT3 wild-type); in the experiment with RS4; 11 (FLT3 wild type); in experiment [2]; with HL-60 (FLT3 wild type); in [3]) was above 1000 nM in each case. Further, the GI50 was above 1000 nM in [4], above 1000 nM in experiment [5], 10 to 100 nM in [6] and 10 to 100 nM in experiment [7].

Turning to `CC(C)(C)c1ccn(C(=O)Nc2ccc(-n3cnc4ccccc43)cc2)n1` [Compound 130, 3-tert-butyl-pyrazol-1-carboxylic acid (4-benzimidazol-1-yl-phenyl)-amide], the GI50 (in experiment [1]; in the experiment on U937 (FLT3 wild-type); with RS4; 11 (FLT3 wild type); in experiment [2]; in the experiment with HL-60 (FLT3 wild type); in [3]) was above 1000 nM throughout. Besides, the GI50 in [4] is above 1000 nM; in [5] it was above 1000 nM; in experiment [6], 100 to 1000 nM; in [7], 100 to 1000 nM.
